Measured values as given in patent EP0120270A2, “Furyloxazolylacetic acid derivative, processes for preparing same and pharmaceutical composition” (Tanabe Seiyaku Co., Ltd., priority 1983, dated 1984).

Experiments:
male SD rats = assay: Hypolipidemic activity (serum cholesterol and serum triglyceride in rats fed diet containing test compound); format: in vivo; details: test compound 50 mg % in diet, ad libitum for one week, group of 5
Description: A test compound (50 mg %) was added to a commercial diet, and male SD rats (body weight: 120 - 140 g, a group of 5 rats) were fed with the diet ad libitum for one week. After the experimental period, blood was collected from the tail vein of the rats under ether anesthesia. Then, serum cholesterol and serum triglyceride were measured according to the methods of Zak (Amr. J. Clin, Pathol., Vol. 24, page 1307 (1954)) and Van Handel-Silversmit (J. Lab. & Clin. Med., Vol. 50, page 152 (1957)), respectively. Based on the results obtained above, the decrease (%) in serum cholesterol or triglyceride were calculated by the following formula: [formula]

platelet aggregation = assay: Platelet aggregation-inhibiting activity (collagen-induced aggregation in platelet-rich plasma); format: cell-based, rats; details: final concentration: 100 µg/ml, rat PRP, 37°C
Description: Blood was collected from the abdominal aorta of male SD rats (body weight: 250 - 300 g) which were anesthetized with ether. Nine volumes of said blood were mixed with one volume of an aqueous 3.8 % (w/v) trisodium citrate solution, and the mixture was centrifuged at 500 x g for 5 minutes to give platelet-rich plasma (hereinafter referred to as "PRP") as the supernatant solution. The bottom layer was further centrifuged at 1000 x g for 10 minutes to give platelet-poor plasma (hereinafter referred to as "PPP") as the supernatant solution. PRP was diluted with PPP so that the blood platelet count was 8 - 10 x 10 /mm . Then, a mixture of 200 µl of said diluted PRP and 25 µl of a test compound solution (final concentration: 100 µg/ml) was introduced into a glass cell of SIENCO aggregometer (Sienco Inc., Morrison, Colo. Model DP-247-D). After the mixture was stirred at 1100 rpm at 37°C for 2 minutes, 25 µl of a collagen solution (prepared by Holmsen's method described in Biochim. Biophys. Acta, Vol. 186, page 254(1969)) was added thereto, and the percentage inhibition of platelet aggregation was calculated in accordance with the following formula from the degree of the platelet aggregation which was estimated by Born's method (Nature, 194, page 927[…]). [formula]

CCOC(=O)C(C)c1nc(-c2ccc(Cl)cc2)oc1-c1ccco1 (stereo not shown) [Ethyl 2-[2-(4-chlorophenyl)-5-(2-furyl)-4-oxazolyl]-propionate]
Decrease (%) in serum choles-terol (male SD rats): 15%
Decrease (%) in serum trigly-ceride (male SD rats): 22%
inhibition at 100 µg/mL (platelet aggregation): ≥ 10%

CC(C)(C(=O)O)c1nc(-c2ccc(Cl)cc2)oc1-c1ccco1 [2-[2-(4-chlorophenyl)-5-(2-furyl)-4-oxazolyl]-2-methylpropionic acid]
Decrease (%) in serum choles-terol (male SD rats): 16%
Decrease (%) in serum trigly-ceride (male SD rats): 54%

CC(C(=O)O)c1nc(-c2ccc(Cl)cc2)oc1-c1ccco1 (stereo not shown) [2-[2-(4-chlorophenyl)-5-(2-furyl)-4-oxazolyl]-propionic acid]
Decrease (%) in serum choles-terol (male SD rats): 14%
Decrease (%) in serum trigly-ceride (male SD rats): 34%

CCOC(=O)C(C)(C)Oc1ccc(Cl)cc1 [Clofibrate, 2-(4-chlorophenoxy)-2-methylpropanoic acid ethyl ester, reference compound]
Decrease (%) in serum choles-terol (male SD rats): 15%
Decrease (%) in serum trigly-ceride (male SD rats): 16%
inhibition at 100 µg/mL (platelet aggregation): < 10%

CCOC(=O)C(C)c1nc(-c2ccc(Cl)cc2)oc1-c1ccoc1 (stereo not shown) [Ethyl 2-[2-(4-chlorophenyl)-5-(3-furyl)-4-oxazolyl]-propionate]
Decrease (%) in serum choles-terol (male SD rats): 22%
Decrease (%) in serum trigly-ceride (male SD rats): 45%
inhibition at 100 µg/mL (platelet aggregation): ≥ 10%
